Experiments:
[1] = tested on: TIC cells; test: TIC cell migration and invasion assays; format: cell-based; settings: TIC cells (FIG. 7C, 7D)
Experimental: Cell Lines The LX-2 human stellate cell line was maintained in Dulbecco's Modified Eagle's Medium (DMEM) supplemented with 2% fetal bovine serum (FBS), 100 IU/ml penicillin, and 100 μg/ml streptomycin. Human hepatocellular carcinoma (HCC) MHCC97H cells were maintained in DMEM supplemented with 10% FBS, 100 IU/ml penicillin, and 100 μg/ml streptomycin, 1 mM HEPES, 1 mM sodium pyruvate, 2 mM L-glutamine. Tumor-initiating (TIC) cells were obtained from Dr. Hidekazu Tsukamoto at University of Southern California and were maintained in 1:1 DMEM:F12 supplement with 100 U/ml penicillin and 100 μg/ml streptomycin, 2 mM glutamine, 20 ng/ml mouse EGF, 10 nM dexamethasone, 1× embryomax nucleotides. All the cells were maintained at 37° C. humidified atmosphere with 5% CO2. TIC cells were infected with Hmgb2 shRNA lentivirus for 48 hr, and treated with 500 ng/ml puromycin for 2 weeks. The stable cells were used for migration and invasion assay, as well as western blot.
Cell Migration and Invasion: Cell migration and invasion assays were performed as described in the art. Briefly, control TIC cells or TIC cells with a stable knockdown of HMGB2 were infected with AAV8-Null or AAV-8-HMGB2 for 48 hr. The cells were then serum starved for 24 hr and 5×10^4 cells were seeded on transwell inserts with 8 μm pore size (Culterx® 96 well cell migration assay, cat# 3465-095-K). Cells were allowed to migrate for 16 hr. Non-migrating cells were removed from the insert with a cotton swab. The migrated cells were fixed for 10 min (3.7% v/v formaldehyde in PBS), and stained with 0.1% crystal violet for 15 min. Cells were washed with PBS and pictures were taken with Microfire/Qcam CCD Olympus 1×81 microscope. Cells stained with crystal violet were counted and then lysed with 1% SDS for 30 min and the absorbance was measured at 570 nm. Cell invasion assays were performed similarly to migration assays, except that the cells were seeded on pre-coated inserts with BME solution (Cultrex® 96 well BME cell invasion Assay, cat# 3455-096-K). Invaded cells were fixed, stained and the absorbance was measured as in the migration assay.

[2] = tested on: CGR8 ES cells; test: CGR8 ES cell differentiation and EB formation; format: cell-based, mouse
Experimental: (§1) Cell culture, Cell transfection:HEK293T, Hela, Hep3B and MHCC97H cells were cultured and transfected using X-tremeGENE™ HP DNA transfection reagent (Roche) as described previously. CGR8 ES cells were cultured on 0.1% gelatin coated tissue-culture dish in knockout DMEM medium containing 15% ES qualified-Fetal Bovine Serum, 2 mM L-glutamin, 0.1 mM NEAA, 0.1 mM β-mercaptoethanol, 50 μg/ml penicillin-streptomycin and 10 ng/ml Leukemia inhibitory factor (LIF). TIC cells were cultured in DMEM-F12 medium containing Embryomax nucleotides, 2 mM L-glutamin, 0.1 mM NEAA, 20 ng/ml mouse EGF, 50 μg/ml penicillin-streptomycin and […].
ES cells EB formation and TICs spheroid assay: CGR8 ES cells were trypsinized into single cells and cultured in ES medium devoid of LIF in hanging drops (900 cells per EB) for 2 d and transferred to ultralow attachment plate for a further 2 d suspension culture. Then, EBs were plated onto gelatin coated tissue-culture plate for further 7 d spontaneously differentiation.
FIGS. 10A-C show the establishment of CGR8 cell culture and differentiation. […] Undifferentiated feeder-free CGR8 ES cells were maintained on 0.1% gelatin coated 6-cm tissue-culture dish in ES medium containing 10 ng/ml Leukemia inhibitory factor (LIF). For EB formation, CGR8 ES cells were trypsinized into single cells and cultured in ES medium devoid of LIF in hanging drops (900 cells per EB) for 2 d and in suspension culture for a further 2 d. Then, EBs were transferred onto gelatin coated tissue-culture plate for further spontaneously differentiation. ES withdraw LIF 2d, CGR8 ES cells were cultured in ES medium devoid of LIF for 2 d.
(§2) FIG. 14A is Left, Western blot of HMGB2 and SOX2 protein in HEK293T cells transfected with 0.5 μg […] expression plasmid and 0, 1 or 2 μg Flag-HMGB2 expression plasmid. Right, Western blot of HMGB2 and OCT4 protein in HEK293T cells transfected with 0.5 μg HA-OCT4 expression plasmid and 0, 1 or 2 μg Flag-HMGB2 expression plasmid. […] CGR8 cells were lysed, co-immunoprecipitated with OCT4 antibody, followed by Western blot with HMGB2 or OCT4 antibodies. FIG. 14 C is a luciferase reporter assay. HepG2 cells were infected with AAV8-GFP or AAV8-HMGB2 24 hrs before being transfected with 6*OS luciferase reporter and OCT4, SOX2 expression plasmids alone or in combination.

[3] = tested on: TIC cells; test: TIC cell proliferation (micrograph); format: cell-based; settings: 5 μM ICM versus DMSO (FIG. 14E)
Experimental: as §1, §2

Row | Compound | cell invasion [1] | cell migration [1] | spheroid formation of CGR8 cells ([2]; EB formation, AAV8 infection versus AAV8-Null (FIG. 14D)) | CGR8 differentiation ([2]; knockdown of HMGB2 (summary)) | CGR8 differentiation ([2]; 5 μM ICM versus DMSO (FIG. 14E)) | TIC cell proliferation [3]
1 | shHMGB2: small hairpin RNA against HMGB2 (SEQ ID NO: 8), delivered by AAV or lentivirus (CCGGGCTCAACATTAGCTTCAGTATCTCGAGATACTGAAGCTAATGTTGAGCTTTTTG) | decreased | decreased | decreases spheroid formation | promotes CGR8 differentiation |  | 
2 | CC1(C)Oc2cc(O)ccc2C2C1=CCn1c(=O)n(-c3ccccc3)c(=O)n12 (centres unmarked) [ICM, inflachromene] | markedly blocks | markedly blocks |  |  | induces CGR8 differentiation | decreases TIC cell proliferation

— patent US20180320177A1, “COMPOSITIONS AND METHODS FOR THE TREATMENT OF LIVER FIBROSIS” (UNIVERSITY OF CONNECTICUT, priority 2015, published 2018)
